Results reported in paper PMC6120238, “Crystal structure of the retroviral protease‐like domain of a protozoal DNA damage‐inducible 1 protein” (FEBS Open Bio, 2018).

Columns and labels:
LmDdi1_1–390 (LmDdi1) [1] = target: T1, LmDdi1_1–390 (LmDdi1) (Leishmania major, UniProt I7HUG0); test: bio-layer interferometry, protein on Ni-NTA sensor, […] Langmuir global fit; type: binding; settings: 20 mM MES pH 6.0, 200 mM NaCl, 1% DMSO; inhibitor 75-600 μM; weak signal, affinity could not be quantified
T1 construct: gene DDI1; full-length residues 1-390 (UBL, RVP and UBA domains), synthetic gene 1170 bp, N-terminal His6 tag (pET-28a, NdeI/HindIII), E. coli BL21; Ni-NTA and gel filtration; immobilised by the tag on Ni-NTA sensor; RVP domain homodimer in crystal; PDB 5YS4 from this construct, 5YQ8 from construct 184-390
T1 sequence (I7HUG0 1-390): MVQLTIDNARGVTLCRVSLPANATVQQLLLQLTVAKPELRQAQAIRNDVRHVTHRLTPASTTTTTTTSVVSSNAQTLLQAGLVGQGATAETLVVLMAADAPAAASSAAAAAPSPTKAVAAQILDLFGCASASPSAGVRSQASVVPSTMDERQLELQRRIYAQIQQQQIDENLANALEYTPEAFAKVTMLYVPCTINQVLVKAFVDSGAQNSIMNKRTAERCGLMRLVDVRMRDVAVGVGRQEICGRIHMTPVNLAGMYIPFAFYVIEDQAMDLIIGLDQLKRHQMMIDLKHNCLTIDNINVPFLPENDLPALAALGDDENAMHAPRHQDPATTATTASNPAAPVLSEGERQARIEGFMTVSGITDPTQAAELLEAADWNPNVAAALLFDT

LmDdi1_1–390 (LmDdi1) [2] = target: T1, LmDdi1_1–390 (LmDdi1); test: as above; type: binding

SMILES | bio-layer interferometry, protein on Ni-NTA sensor, 1:1 Langmuir global fit (LmDdi1_1–390 (LmDdi1) [1]) | Kd (LmDdi1_1–390 (LmDdi1) [2]) [µM]
Cc1c(O)cccc1C(=O)N[C@@H](CSc1ccccc1)[C@H](O)CN1C[C@H]2CCCC[C@H]2C[C@H]1C(=O)NC(C)(C)C [nelfinavir] | Nelfinavir showed much less binding, and the binding affinity could not be quantified | –
CC(C)(C)NC(=O)[C@@H]1C[C@@H]2CCCC[C@@H]2CN1C[C@@H](O)[C@H](Cc1ccccc1)NC(=O)[C@H](CC(N)=O)NC(=O)c1ccc2ccccc2n1 [saquinavir] | – | 314 ± 12.8
